From patent US20240239841A1, “PEPTIDE AND METHOD FOR TREATING PAIN USING THE SAME” (PELL BIO-MED TECHNOLOGY CO., LTD., priority 2019, published 2024)
Non-standard residues stand in square brackets, D forms with d. pGlu = O=C1CC[C@@H](C(=O)O)N1

Experiments:
[1] = system: ICR mice with CFA-induced arthritis (bilateral mechanical hyperalgesia); assay: Paw withdrawal threshold (PWT) by von Frey Filament in CFA-induced arthritis mice; details: for PWT value of ipsilateral hind paw / PWT value of contralateral paw: 90 min after administration; for time of best antinociceptive effect after administration: peptide 3 mg/kg, morphine 10 mg/kg, PWT determined at 0, 30, 60, 90, 120 min
IL-6 = assay: Serum IL-6 by ELISA in CFA-induced arthritis mice after long-term oral administration; assay type: in vivo, ICR mice; details: 3 mg/kg oral once a week, 4th to 12th week; serum at 12th week; vs water control; FIG. 2
Experimental: (§1) On the other hand, the mice administered with water were served as the control group, which also comprised 6 mice. The mice in the experimental group and the control group were sacrificed on the 12th week after administration. The serum collection is conducted by cardiac puncture. The Mouse TNF-α Quantikine ELISA Kit (R&D System, MTA00B), Mouse IL-6 Quantikine ELISA Kit (R&D System, M600B) and enzyme-linked immunosorbent assay (ELISA) were used to determine and collect the serum concentration of TNF-α and IL-6 of mice in the experimental group and the control group.

TNF-α = assay: Serum TNF-α by ELISA in CFA-induced arthritis mice after long-term oral administration; assay type: in vivo, ICR mice; details: 3 mg/kg oral once a week, 4th to 12th week; serum at 12th week; vs water control; FIG. 1
Experimental: as §1

[2] = system: C57BL/6JNarl male mice (radiant heat tail-flick); assay: Radiant heat tail-flick test; assay type: in vivo, C57BL/6JNarl mice; details: oral doses of 0.1 μg/kg, 0.3 μg/kg, 0.1 mg/kg, 1 mg/kg, 3 mg/kg and 10 mg/kg, among 0.01 μg/kg to 10 mg/kg tested; latency 10-90 min; FIG. 9
Experimental: (§2) For conducting nociceptive pain and acid-induced chronic widespread pain experiments, C57BL/6JNarl male mice (20 to 25 g) were housed in an environment with temperature control (24±0.5° C.) and 12-hour light-dark cycle (lights on during 08:00-20:00) and allowed free access to standard laboratory food and tap water. Animals were allowed to acclimatize for 20 to 30 min prior to experimental manipulations. Animal care and handling procedures were adopted in accordance with the International Association for the Study of Pain guidelines for those animals used in pain research, and the procedures were approved by the Committee for Ethics in Animal Research.
The radiant heat tail-flick test was modified in accordance with F. E. D'Amour, D. L. Smith, A method for determining loss of pain sensation. The Journal of Pharmacology and Experimental Therapeutics 72, 74-79 (1941). The 5 to 12 mice from Preparation Example 3 were placed and acclimatized in the restrainers for 30 min prior to the tail-flick test. […] The latency was recorded every 10 min during the indicated time period (10-90 min) after oral administration with different dosages of the peptide of SEQ ID NO: 1 (0.01 μg/kg, 0.03 μg/kg, 0.1 μg/kg, 0.3 μg/kg, 1 μg/kg, 0.01 mg/kg, 0.1 mg/kg, 1 mg/kg, 3 mg/kg, and 10 mg/kg). Then the latency during 10-90 min was calculated. […]

[3] = system: C57BL/6JNarl male mice (acetic acid-induced visceral pain); assay: Acetic acid-induced writhing (abdominal constriction) assay; assay type: in vivo, C57BL/6JNarl mice; details: oral doses of 1 μg/kg and 10 mg/kg, among 0.1 μg/kg to 10 mg/kg tested; 10 min before 1% acetic acid; FIG. 9
Experimental: as §2
Acid-induced abdominal constriction assay was performed in accordance with H. O. Collier, L. C. Dinneen, C. A. Johnson, C. Schneider, The abdominal constriction response and its suppression by analgesic drugs in the mouse. Br J Pharmacol Chemother 32, 295-310 (1968). In general, the mice from Preparation Example 3 were placed in a small observation chamber and habituated for 20 min. […] The numbers of abdominal constrictions in 30 min after acid injection were counted and the mean constriction numbers of mice of each group were calculated. […]

**Q.** For `CN1CC[C@]23c4c5ccc(O)c4O[C@H]2[C@@H](O)C=C[C@H]3[C@H]1C5` [morphine, reference compound], which “PWT value of ipsilateral hind paw” value ([1]; morphine 10 mg/kg oral on 4th week, rose from 0.085±0.015 g, FIG. 3) is on record?
**A.** 0.64 ± 0.089 g

**Q.** And the “PWT value of contralateral paw” value ([1]; morphine 10 mg/kg oral on 4th week, rose from 0.43±0.033 g, FIG. 4)?
**A.** 1.96 ± 0.488 g

**Q.** And the “time of best antinociceptive effect after administration” value ([1]; oral)?
**A.** 90 min

**Q.** What does the source list for “Glp Glu Thr Ala Val Ser Ser His Glu Gln Asp ([pGlu]ETAVSSHEQD-OH; SMILES CC(C)[C@H](NC(=O)[C@H](C)NC(=O)[C@@H](NC(=O)[C@H](CCC(=O)O)NC(=O)[C@@H]1CCC(=O)N1)[C@@H](C)O)C(=O)N[C@@H](CO)C(=O)N[C@@H](CO)C(=O)N[C@@H](Cc1c[nH]cn1)C(=O)N[C@@H](CCC(=O)O)C(=O)N[C@@H](CCC(N)=O)C(=O)N[C@@H](CC(=O)O)C(=O)O) [peptide of SEQ ID NO: 1]”?
**A.** serum concentration of IL-6 (IL-6): decreased compared to the control group; serum concentration of TNF-α (TNF-α): not detected (ND); antinociceptive effect in the radiant heat tail-flick test (% MPE) [2]: best antinociceptive effect; antinociceptive effect in the acid-induced writhing experiment (antinociceptive activity %) [3]: best antinociceptive effect; PWT value of ipsilateral hind paw ([1]; 0.3 μg/kg oral, rose from 0.065 g, FIG. 7): 1 g; PWT value of contralateral paw ([1]; 0.3 μg/kg oral, rose from 0.32 g, FIG. 8): 1 g; PWT value of ipsilateral hind paw ([1]; 1 μg/kg oral, rose from 0.065 g, FIG. 7): 0.6 g; PWT value of contralateral paw ([1]; 1 μg/kg oral, rose from 0.32 g, FIG. 8): 1.4 g; PWT value of ipsilateral hind paw ([1]; 3 μg/kg oral, rose from 0.065 g, FIG. 7): 0.16 g; PWT value of contralateral paw ([1]; 3 μg/kg oral, rose from 0.32 g, FIG. 8): 1 g; PWT value of ipsilateral hind paw ([1]; 1 mg/kg oral once a week, 4th to 12th week, increased from 0.09 g, FIG. 5): 0.5˜1 g; PWT value of contralateral paw ([1]; 1 mg/kg oral once a week, 4th to 12th week, increased from 0.4 g at 3rd week, FIG. 6): 0.6˜ 1.2 g; PWT value of ipsilateral hind paw ([1]; 3 mg/kg oral once a week, 4th to 12th week, increased from 0.09 g of 3rd week, FIG. 5): 0.63˜1 g; PWT value of contralateral paw ([1]; 3 mg/kg oral once a week, 4th to 12th week, increased from 0.4 g, FIG. 6): 0.87˜1.27 g; antinociceptive effects of 1 mg/kg and 3 mg/kg compared (PWT) ([1]; oral, long-term administration once a week, 4th to 12th week): similar; time of best antinociceptive effect after administration ([1]; oral): 90 min; PWT value of ipsilateral hind paw ([1]; peptide 3 mg/kg oral on 4th week, rose from 0.07 g, FIG. 3): 0.9 ± 0.156 g; PWT value of contralateral paw ([1]; peptide 3 mg/kg oral on 4th week, rose from 0.5±0.047 g, FIG. 4): 1.35 ± 0.193 g; antinociceptive effect compared with morphine (PWT) ([1]; peptide 3 mg/kg oral vs morphine 10 mg/kg oral, lower amount required): antinociceptive effect similar to morphine
